Experimental findings from a melting point compilation (Tetko et al.; mined from patent text by program, amines drawn as free bases though some values may be those of a salt) are described below.

Structures are written as SMILES.

The term melting point denotes the temperature, or range, at which the solid turns liquid. The molecule `Nc1nc(-c2cc(Cl)ccc2Cl)nc(N2CC=CC2)n1` returned a melting point of 205 to 206 °C. The result for `Cc1cccc(N2CCN(CCCc3ccc(C4CCC(=O)N4)cc3)CC2)c1` (centres undefined) reads 87 to 89 °C; that for `CCCc1c(OCc2ccc(C(=O)O)cc2OC)ccc(C(C)=O)c1O`, 248 to 250 °C; that for `COc1ccc2c(c1)C(=O)OCN2c1ccccc1`, 99.5 to 101 °C.

Molecule `O=C(O)CN(CC(=O)O)CC(CCc1ccc([N+](=O)[O-])cc1)N(CC(=O)O)CC(=O)O` (centres undefined) had a melting point of 188 to 189 °C. The result for `CC(C)CCCC(C)C1CCC2C3CC=C4CC(OS(C)(=O)=O)CCC4(C)C3CCC12C` (centres undefined) reads 119 to 120 °C; that for `CCCC1=C(C#N)C(c2cccc3c2OCCC3)c2c[nH]nc2N1` (centres undefined), 230 °C; that for `O=C(O)Cc1ccc(OCCNC(=O)C2Cc3ccccc3N2S(=O)(=O)c2ccc(-c3cc(C(F)(F)F)ccc3Cl)cc2)cc1` (centres undefined), 84 °C. Turning to `CCNC(=O)c1nn(-c2ccc(Cl)cc2)c(=O)c2c(N)scc12`, the melting point was 203 to 205 °C.

As for `COc1ccc(CCNc2nc3nc(-c4ccco4)nc-3c(N)[nH]2)cc1`, the melting point is 220 to 222 °C.

`Cc1ccccc1N1CCc2nnc3c(C)cccc3c21` had a melting point of 135 to 137 °C.

With `COCc1cc(-c2c(S(C)(=O)=O)ccc(C(=O)C3C(=O)CCCC3=O)c2Cl)no1`, the melting point is 39 to 40 °C. The same measure for `Cc1ccc(=O)n(-c2cc(-c3ccnc(Nc4cccc(Cl)c4)n3)ccn2)n1`: 187 to 189 °C. The same measure for `CSc1ccc(C(=N)Nc2ccc(F)cc2)cc1`: 145 to 147 °C; for `CC#CCOc1ccc(C(=O)N(C)C[C@@H](C(=O)NO)N2CCN(S(C)(=O)=O)CC2)cc1`: 145 °C; for `CCCCn1c(=O)c2c(ncn2S(=O)(=O)c2c(C)noc2C)n(CCCC)c1=O`: 103 to 105 °C.

Regarding `Nc1ccc2nccn2n1`, the melting point was 198 to 202 °C.

In turn, `CCc1cccc(CC)c1NC(=O)c1c(-c2ccccc2)oc(C)cc1=O` came in with a melting point of 186 to 189 °C. The result for `CN(C)Cc1cccc(-c2cc(C(N)=O)ccc2C(N)=O)c1` reads 162 to 165 °C; that for `COC(=O)c1ccc(CBr)cc1O`, 73 to 75 °C; that for `COc1cc2c(cc1Nc1ncc(Cl)c(Nc3ccc(C#N)cc3OC)n1)CCN(CC(=O)N(C)C)CC2`, 92 to 105 °C. Turning to `O=C(Cc1ccccn1)c1nc2ccccc2[nH]1`, the melting point came to 202 °C.

The molecule `COc1ccc(-n2nc(Sc3ccc(Cl)c(Cl)c3)c(C)c(C#N)c2=O)cc1` registered a melting point of 168 to 171 °C. The result for `CC(=O)Nc1ccccc1CS(=O)c1nccn1-c1ccccn1` (centres undefined) reads 172 to 173 °C. The same measure for `CC(=O)c1ccc(-c2ccc(CC(=O)NC3CCN(Cc4ccc(Cl)c(Cl)c4)CC3)cc2)cc1`: 184 °C. Molecule `O=C1N=C(N2CCSCC2)SC1=Cc1cccc(-c2cc(F)c(O)c(C34CC5CC(CC(C5)C3)C4)c2)c1` displayed a melting point of 180 to 184 °C.

The molecule `CC(=O)CCn1[nH]c(=O)c2ccccc2c1=O` gave a melting point of 152 to 153 °C.

As to `O=C1CCOc2c1ccc(O)c2CCCc1ccccc1`, the melting point lay within 110 to 112 °C.

`FC(F)C(F)(F)Sc1nc(-c2ccc(Cl)cc2)c(-c2cccs2)[nH]1`: the melting point was in the range of 162 to 163 °C. The result for `CCN1C(=O)C(C)(C)C(=O)N(C)c2cc(CN(CCn3ccc4oc(C)cc4c3=O)Cc3cnccn3)ccc21` reads 129 to 131 °C; that for `COc1cc2ncnc(NC3=CC(=O)C4(C(C)C)OC4C3=O)c2cc1OC` (centres undefined), 188 to 190 °C. The same measure for `CCn1nc(C#Cc2ccccc2)ccc1=O`: 74 to 75 °C. Turning to `CCOC(=O)CCn1c(C(=O)Nc2nc(-c3cc(OC)c(Cl)cc3OC)c(CCC3CCCCC3)s2)cc2ccccc21`, the melting point lay in the range of 79 to 85 °C. As for `CCCn1cnc2c1c(=O)n(CC(C)(O)C#CCN(CC)CC)c(=O)n2C` (centres undefined), the melting point worked out at 109 °C.

For the molecule `CCC(CC)C(c1ccnn1-c1ccccc1)N(C)S(=O)(=O)c1ccc(Br)s1` (centres undefined), the melting point was 116 to 118 °C. The same measure for `Fc1cccc(F)c1-c1nnc(-c2ccccc2Br)nn1`: 168 °C; for `CCOC(=O)c1c(C)nc(S)c(N)c1NCCCN(C)C`: 110 to 112 °C. The result for `O=C(C=Cc1ccc(CN(CCO)C2CCCCC2)cc1)Nc1ccc(-c2ccc(Cl)cc2)cc1` reads 178 to 179 °C; that for `CCOC(=O)N1CCN(c2ccc(Cl)nn2)CC1`, 124 °C; that for `CCCc1cc2ccc(CC(=O)O)cc2[nH]1`, 85 to 87 °C. The same measure for `Cn1c(-c2ccc(OC3CCN(C4CCCC4)CC3)cc2)nc2ncccc2c1=O`: 175 to 177 °C; for `COc1cc(C=CC=NO)ccc1OC(C)=O`: 72 to 74 °C; for `COC(=O)c1sc2c(c1N=CN(C)C)c1ccccc1c(=O)n2-c1ccccc1`: 225 to 227 °C. `CCCc1c(C(=O)N(CC)CC)ccc(OC)c1OC` yielded a melting point of 65 to 67 °C. `COc1ccc(C=C(Br)Br)cc1OC(C)C`: the melting point lay in the range of 67 to 69 °C. Turning to `Cc1ccccc1[C@H](O)CCc1c(C(=O)N(C)C)cc2c(nc(C)n2C)c1O`, the melting point lay within 200 to 202 °C.

In turn, `CN1Cc2c(-c3noc(CN4CCCCC4)n3)ncn2-c2ccccc2C1=O` showed a melting point of 167 to 168 °C.

The molecule `O=C(O)c1cc(CBr)on1` came in with a melting point of 143 to 148 °C. The molecule `COC(=O)c1ccc2c(c1)CCC(C(N)=O)C2` (centres undefined) gave a melting point of 162 to 164 °C. The result for `O=C(Nc1cccc(C(F)(F)F)c1)c1ccccc1NCCc1ccncc1` reads 151 to 152 °C. In turn, `COc1ccc(-c2c(C)cc3c(O)cc(C)nn23)c(Cl)c1` came in with a melting point of 196 to 198 °C. `N=C(N)NC(=O)OCCNC(=O)c1ccc2cc(C(=O)NC(=N)N)ccc2c1`: the melting point is 205 °C. Consider `CCOC(=O)c1cc2c(cc(C)n2OC)nc1C(=O)OCC`, for which the melting point lay within 94.5 to 96.5 °C. The result for `COC(=O)C1CCN2C(=O)C(=O)c3cc([N+](=O)[O-])cc1c32` (centres undefined) reads 144 to 145 °C.

In turn, `Cc1cc2nc(Cl)c3cnc(Cl)cc3n2n1` displayed a melting point of 203 °C. `CCOc1ccnc(F)c1N`: the melting point was 76 to 77 °C. The same measure for `CC(C)(C)OC(=O)N(C[C@H](O)COc1ccc(O)cc1)C1CNC1`: 130 to 134 °C; for `CC1CN(C(=O)COc2cc(-c3ccccc3)nc3ccccc23)CC(C)O1` (centres undefined): 117 °C; for `COc1cccc2cc3c(c(-c4ccc5c(c4)OCO5)c12)C(=O)NC3=O`: 291 to 293 °C. The same measure for `Cc1cc(-c2ccc(C(F)(F)F)cc2)nc(-c2cccc(-c3ccc(S(N)(=O)=O)s3)c2)n1`: 225 °C; for `Cc1cccc2oc(C(=O)Nc3ccc(-c4ccc(S(=O)(=O)NC(C(=O)O)C(C)C)cc4)cc3)c(C)c12` (centres undefined): 250 to 252 °C; for `CC(=O)Oc1ccc(C(=O)Cl)cc1`: 167 °C. `O=C(Nc1cccc(S(=O)(=O)N2CCCC2)c1)c1cnn2c(C(F)F)cc(-c3ccc(Cl)c(Cl)c3)nc12` showed a melting point of 245 °C. Regarding `Cc1c(F)cccc1Cc1c(-c2ccccc2)c2ccccn2c1C(=O)N1CCN(C(=O)OC(C)(C)C)CC1`, the melting point stood at 263 °C.

Take `CC(C)(C)c1ccc(C(N)=O)cc1N`: the melting point lay in the range of 140 to 142 °C.

Molecule `Cn1ncnc1COc1nn2c(-c3ccccc3)nnc2cc1-c1ccc(Cl)s1` gave a melting point of 244 to 247 °C. `Nc1cc(O)nn1-c1c(Cl)cc(Cl)cc1Cl` yielded a melting point of 221 to 223 °C. The result for `CN1CCN(S(=O)(=O)c2cc(NC(=O)c3cnn4c(C(F)(F)F)cc(-c5ccc(C(F)(F)F)cc5)nc34)c(Cl)s2)CC1` reads 301 °C; that for `O=C(O)c1ccc(CCCOCCCCCCBr)cc1`, 70 to 71 °C; that for `N#Cc1cc(C#N)cc(CO)c1`, 119 to 120 °C. `COC(=O)CCc1cc2cc(Cl)c(Cl)cc2n1S(=O)(=O)c1ccccc1` displayed a melting point of 280 °C.

With `Cn1nc(-c2cc(C=NOCC(=O)O)c(Cl)cc2F)c(Cl)c1C(F)(F)F`, the melting point came to 170 °C. The same measure for `O=C1OC(CO)CN1c1ccccc1` (centres undefined): 122 to 124 °C; for `Cc1nc2cccc(S(=O)(=O)n3c(CCC(=O)O)cc4cc(Cl)ccc43)c2s1`: 188 to 189 °C. Consider `CN(Cc1cc2c(=O)c(C(=O)NCc3ccc(Cl)cc3)cn(C)c2o1)CC(O)c1nccs1` (centres undefined), for which the melting point was 114 to 116 °C. The same measure for `CN1Cc2c(-c3nc(CCl)cs3)ncn2-c2cccc(Cl)c2C1=O`: 277 to 279 °C.

`CCOC(=O)c1ccc(-c2nc(-c3ccccc3)ccc2Cl)cc1` had a melting point of 81 to 82 °C. The result for `O=C(NNC(=O)c1occc1-c1cccc(OCc2ccccc2)c1)c1ccc(O)c([N+](=O)[O-])c1` reads 171 to 173 °C; that for `N#CCCCSc1nccc(NC(=S)NCC(F)(F)F)n1`, 125 to 126 °C; that for `O=C(O)c1ccccc1-c1c2ccc(=O)cc-2oc2cc(O)ccc12`, 185 to 190 °C. The result for `COC(=O)Cc1c(C(=O)OC)ccn1CCO` reads 52 to 54 °C; that for `CC(=O)CCC(=S)N(CC(=O)O)C1Cc2ccccc2C1`, 120 to 122 °C; that for `CCOC(=O)c1nc(SC)[nH]c(=O)c1OCc1ccccc1`, 109 to 110 °C. Molecule `Cc1ccc(C)c(C2=C(O)C(CC3CCS(=O)(=O)CC3)NC2=O)c1` (centres undefined) came in with a melting point of 244 to 246 °C. Regarding `CCOC(=O)c1ccc(N)c(I)c1`, the melting point is 71 to 74 °C. Molecule `O=C1CCCc2cc(I)ccc21` showed a melting point of 77 to 78 °C. The same measure for `Cc1cc2c(c(C)c1NC(=O)NC(C)(C)C)C(c1ccc(C(C)C)cc1)CO2` (single isomer, unassigned; (+)): 205 to 206 °C; for `CSc1ccc(-c2oncc2C(=O)C2CC2)nc1`: 103 to 104 °C. In the case of `CC(C)(C)c1cc(SCc2ccccc2C#N)cc(C(C)(C)C)c1O`, the melting point lay in the range of 79 to 82 °C.
